Common to all, as to type: cell-based, mouse
For assay [1], the system named is Oli-neu oligodendrocytes. Kind of assay: Process retraction in Oli-neu oligodendrocytes (Phalloidin+ processes per cell). The conditions noted are these: 24 hours, PAR1-AP 100 μM, Klk1 300 nM. As for the experimental part:
Oli-neu oligodendrocytes are derived from mouse primary oligodendrocyte cultures retrovirally transduced to constitutively express the t-neu oncogene (Jung et al., Eur J Neurosci 7:1245-1265, 1995). All morphology, signaling, and myelin gene expression studies using Oli-neu oligodendrocytes were performed in media containing DMEM, 1% N2, 2 mM Glutamax, 1 mM sodium pyruvate, 20 mM HEPES buffer, and 50 μM β-mercaptoethanol (Sigma Aldrich. To evaluate PAR and Klk6 gene expression in Oli-neu (Table 2), cells were differentiated by treatment with 1 mM N^6, 2′-O-dibutyryladenosine 3′, 5′-cyclic monophosphate disodium salt (dbcAMP) for 72 hours prior to harvesting for RNA isolation. All cells were maintained at 37° C. in 95% air and 5% CO2. Cell culture reagents were obtained from Life Technologies (Carlsbad, CA) unless otherwise indicated. All cell culture experiments were performed in triplicate and repeated at least twice.
(§1) PAR agonist-induced changes in oligodendrocyte morphology: To determine the effects of recombinant Klk6, Klk1, thrombin, or PAR1-AP on oligodendroglia, 3 DIV PAR1^+/+, PAR1^−/−, and PAR2^−/− oligodendrocytes, PAR1^+/+ OPCs immediately post purification, or Oli-neu cells were grown on cover slips in the presence of agonists for 24 h. For ATP toxicity assays, oligodendrocytes were incubated with ATP (50 μM, Sigma Aldrich) in the presence of Klk6 or Klk1. Following each treatment, oligodendrocyte and OPC cultures were immunolabeled for O4 to visualize the cell body and processes. Oli-neu processes were visualized by staining the actin cytoskeleton with Cy3-conjugated Phalloidin.
(§2) To assess the effects of Klk6 and other PAR1 agonists on oligodendrocyte morphology and process stability, 20× digital micrographs were overlaid with a 780 μm^2 grid and ImageJ software 1.45r (National Institutes of Health) used to record cell number and the number of processes crossing horizontal grid lines (Scarisbrick et al., Brain 125:1283-1296, 2002). Data are expressed as the mean number of O4^+ or Phalloidin^+ processes per DAPI^+ cell (±SEM).

Assay [2] concerns oligodendrocyte progenitor cells (OPCs). Kind of assay: OPC process outgrowth. The conditions noted are these: 24 h. How it is done: (§3) Oligodendrocyte Cultures: Purified cortical oligodendrocyte progenitor cells (OPCs) and differentiated oligodendrocytes were isolated from mixed glial cultures derived from postnatal day 1 mice (McCarthy and de Vellis, J Cell Blot 85:890-902, 1980). Glial cultures were grown in media containing DMEM, 2 mM Glutamax, 1 mM sodium pyruvate, 20 mM HEPES, and 10% heat-inactivated fetal calf serum (Atlanta Biologicals, Lawrenceville, GA). OPCs were isolated from 10 days-in-vitro (DIV) mixed glial cultures by overnight shaking and purified by differential adhesion. OPCs were seeded in defined Neurobasal A media containing 1% N2, 50 U/mL penicillin/streptomycin, 2 mM Glutamax, 1 mM sodium pyruvate, 0.45% glucose, and 50 μM β-mercaptoethanol (Sigma Aldrich, USA). OPCs were seeded at 3×10^4/cm^2 onto tissue culture plastic or 12 mm glass cover slips coated with poly-L-lysine (PLL, 10 μg/mL). After 24 h, cultures were 92-98% immunoreactive (IR) for sulfatide (O4) and by 72 hours at least 80% were also MBP-IR.
as §1, §2
(§4) Changes in OPC or oligodendrocyte morphology were quantified from five microscopic fields per cover slip with the mean and SEM calculated across three cover slips per experiment. Each experiment was repeated at least twice using independent cultures. Analysis of oligodendrocyte morphology was performed without knowledge of treatment groups.

Assay [3] has as its system primary oligodendrocytes. Kind of assay: Klk6-induced process retraction in primary oligodendrocytes (O4+ processes per cell). How it is done:
as §3, §1, §2, §4

As for “Klk6: Recombinant murine kallikrein-related peptidase 6 expressed using a baculovirus system”, the Oli-neu cell number entry in assay [1] (Klk6 30 nM) was “small but significant increase”. Besides, the “number of processes per cell” value in assay [1] (Klk6 30, 150, 300 nM, thrombin 270 nM) is “significant and dose-dependent”. In addition, in assay [2] (150 nM), the “fewer processes per cell compared with controls” value was ~60%. For the same substance, the “number of OPCs” value in assay [2] is on record as “significantly reduced”. Besides, the “OPC process extension / outgrowth” value in assay [2] (Klk6 150 nM, thrombin 135 nM, Klk1 150 nM) is given as “significantly fewer processes than thrombin treated cultures”. Also, in assay [3] (PAR1+/+ oligodendrocytes 3 DIV, 30 or 300 nM, 24 h), the “oligodendrocyte process retraction compared with controls” value is “significant and statistically equivalent oligodendrocyte process retraction”. In addition, in assay [3] (PAR1+/+, PAR1-/- or PAR2-/- cells), the “number of O4+ cells” value was “No significant differences”. Also, the oligodendrocyte process retraction entry is given as “did not exhibit statistically significant process retraction” in assay [3] (PAR1-/- oligodendrocytes, 30 or 300 nM) and “process retraction comparable to that seen in PAR1^+/+ cultures” in assay [3] (PAR2-/- oligodendrocytes, 30 or 300 nM).

The values above are taken from patent publication US11813264B2, “PAR1 modulation to alter myelination” (Mayo Foundation for Medical Education and Research, priority 2014, dated 2023).
